Results: US20230146395A1, “Substituted Pyrimidines and Uses Thereof” (Verge Analytics, Inc., priority 2020, published 2023)
Structures can show the parent of a compound that is named as a salt.

The molecules below were run against T1, Full length human recombinant PIKFYVE (Homo sapiens, UniProt Q9Y2I7) (assay: Inhibition of PIKfyve (microfluidic electrophoresis kinase assay, PI3P/PS substrate)). Conditions: 12 concentrations.
T1 construct: Full length human recombinant PIKFYVE; purchased Carna Biosciences (Kobe, Japan); host or cells: baculovirus expression system
T1 sequence (Q9Y2I7 whole entry): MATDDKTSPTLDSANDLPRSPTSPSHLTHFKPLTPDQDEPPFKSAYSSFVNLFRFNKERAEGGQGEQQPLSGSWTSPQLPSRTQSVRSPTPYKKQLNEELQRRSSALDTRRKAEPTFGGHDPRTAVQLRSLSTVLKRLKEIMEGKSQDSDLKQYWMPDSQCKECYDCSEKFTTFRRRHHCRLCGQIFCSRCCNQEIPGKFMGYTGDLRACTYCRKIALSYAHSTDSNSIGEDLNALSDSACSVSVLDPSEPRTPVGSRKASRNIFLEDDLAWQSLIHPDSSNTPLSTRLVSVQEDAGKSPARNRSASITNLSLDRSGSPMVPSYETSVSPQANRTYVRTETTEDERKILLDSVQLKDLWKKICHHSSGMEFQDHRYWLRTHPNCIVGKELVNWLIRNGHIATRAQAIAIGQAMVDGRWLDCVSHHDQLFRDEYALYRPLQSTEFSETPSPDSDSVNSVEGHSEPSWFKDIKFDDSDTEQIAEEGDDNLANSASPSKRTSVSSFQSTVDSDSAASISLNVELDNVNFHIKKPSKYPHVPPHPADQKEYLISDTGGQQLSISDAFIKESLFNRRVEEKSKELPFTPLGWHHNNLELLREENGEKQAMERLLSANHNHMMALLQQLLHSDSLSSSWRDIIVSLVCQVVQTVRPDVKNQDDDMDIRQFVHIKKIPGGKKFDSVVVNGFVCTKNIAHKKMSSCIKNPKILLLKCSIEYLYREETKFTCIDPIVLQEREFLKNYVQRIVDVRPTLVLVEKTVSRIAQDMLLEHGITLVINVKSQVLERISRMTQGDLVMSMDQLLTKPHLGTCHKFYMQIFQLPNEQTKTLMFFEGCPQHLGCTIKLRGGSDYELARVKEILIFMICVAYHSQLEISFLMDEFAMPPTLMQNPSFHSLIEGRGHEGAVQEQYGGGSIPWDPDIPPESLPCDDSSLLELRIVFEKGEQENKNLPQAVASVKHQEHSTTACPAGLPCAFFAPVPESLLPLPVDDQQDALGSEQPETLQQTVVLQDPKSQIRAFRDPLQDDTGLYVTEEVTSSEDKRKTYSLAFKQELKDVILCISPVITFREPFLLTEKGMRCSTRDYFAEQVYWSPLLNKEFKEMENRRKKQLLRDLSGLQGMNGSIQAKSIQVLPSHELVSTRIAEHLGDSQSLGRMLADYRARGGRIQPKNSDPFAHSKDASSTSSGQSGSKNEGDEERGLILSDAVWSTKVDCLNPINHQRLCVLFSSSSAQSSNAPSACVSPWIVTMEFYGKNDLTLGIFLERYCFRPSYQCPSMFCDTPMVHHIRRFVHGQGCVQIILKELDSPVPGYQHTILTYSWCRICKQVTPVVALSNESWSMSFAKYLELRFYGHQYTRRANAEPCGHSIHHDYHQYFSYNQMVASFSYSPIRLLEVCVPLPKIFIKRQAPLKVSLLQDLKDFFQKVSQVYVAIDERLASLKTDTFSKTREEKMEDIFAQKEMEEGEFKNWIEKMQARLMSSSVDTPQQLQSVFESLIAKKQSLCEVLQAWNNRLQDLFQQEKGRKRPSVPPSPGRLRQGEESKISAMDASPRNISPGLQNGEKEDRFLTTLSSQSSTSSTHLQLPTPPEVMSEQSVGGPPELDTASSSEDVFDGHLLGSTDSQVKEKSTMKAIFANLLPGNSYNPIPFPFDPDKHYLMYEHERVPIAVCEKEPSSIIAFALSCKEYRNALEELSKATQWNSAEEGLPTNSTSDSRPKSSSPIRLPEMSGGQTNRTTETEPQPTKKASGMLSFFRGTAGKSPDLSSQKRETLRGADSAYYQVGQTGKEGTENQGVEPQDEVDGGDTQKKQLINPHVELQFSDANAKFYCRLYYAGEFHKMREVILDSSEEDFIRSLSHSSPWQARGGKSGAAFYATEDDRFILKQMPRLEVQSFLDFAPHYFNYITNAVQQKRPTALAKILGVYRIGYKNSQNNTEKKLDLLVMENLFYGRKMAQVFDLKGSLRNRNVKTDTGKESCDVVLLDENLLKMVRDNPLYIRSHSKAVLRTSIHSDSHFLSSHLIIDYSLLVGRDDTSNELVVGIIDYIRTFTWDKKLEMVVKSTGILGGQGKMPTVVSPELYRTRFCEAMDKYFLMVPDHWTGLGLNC
Assay type: biochemical
In short: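 GST-tagged full-length human PIKFYVE (baculovirus; 2 nM) with fluorescent PI3P/PS (1 μM PI3P) and […] in pH 7.5 HEPES with Mg2+/Mn2+, 1% DMSO, 3 h at room temperature. PI(3,5)P product/substrate ratio read by microfluidic electrophoresis; 12-point % inhibition versus no-enzyme and DMSO controls.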
`O=C(NCC1CC1)c1cc2nc(-n3ccc(-c4ccccc4)n3)nc(N3CCOCC3)c2o1` [Compound 166, N-(cyclopropylmethyl)-4-morpholino-2-(3-phenylpyrazol-1-yl)furo[3,2-d]pyrimidine-6-carboxamide] gave an IC50 of 0.22 µM. In the case of `CN1CCCC(c2cc3nc(Nc4cc(-c5ccccc5)n[nH]4)nc(N4CCOCC4)c3o2)C1` (centres unmarked) [Compound 35, 6-(1-methylpiperidin-3-yl)-4-morpholino-N-(3-phenyl-1H-pyrazol-5-yl)furo[3,2-d]pyrimidin-2-amine hydrochloride], the IC50 is reported as 0.205 µM. `O=C(NCC1CC1)c1cc2nc(Nc3cc(-c4ccccc4)[nH]n3)nc(N3CCOCC3)c2o1` [Compound 61, N-(cyclopropylmethyl)-4-morpholino-2-[(5-phenyl-1H-pyrazol-3-yl)amino]furo[3,2-d]pyrimidine-6-carboxamide, hydrogen chloride] gave an IC50 of 0.0025 µM. For `O=C(c1cc2nc(Nc3cc(-c4ccccc4)[nH]n3)nc(N3CCOCC3)c2o1)N1CCCC1` [Compound 54, [4-morpholino-2-[(5-phenyl-1H-pyrazol-3-yl)amino]furo[3,2-d]pyrimidin-6-yl]-pyrrolidin-1-yl-methanone; hydrogen chloride], the IC50 was 0.066 µM. `Cc1cc(-c2cc3nc(-n4ccc(-c5ccccc5)n4)nc(N4CCOCC4)c3o2)nn1CCN(C)C` [Compound 177, N,N-dimethyl-2-[5-methyl-3-[4-morpholino-2-(3-phenylpyrazol-1-yl)furo[3,2-d]pyrimidin-6-yl]pyrazol-1-yl]ethanamine] was tested, and the IC50 was 0.0413 µM. `[2H]C([2H])([2H])c1cccc(-c2ccn(-c3nc(N4CCOCC4)c4oc(-c5ccccn5)cc4n3)n2)c1` [Compound 217, 4-morpholino-6-(2-pyridyl)-2-[3-[3-(trideuteriomethyl)phenyl]pyrazol-1-yl]furo[3,2-d]pyrimidine] gave an IC50 of 0.0022 µM. Work on `Fc1cccc(-c2cc(Nc3nc(N4CCOCC4)c4occc4n3)[nH]n2)c1` [Compound 7, N-[5-(3-fluorophenyl)-1H-pyrazol-3-yl]-4-morpholino-furo[3,2-d]pyrimidin-2-amine, hydrogen chloride] yielded an IC50 of 0.451 µM. For `CNC(=O)c1cc2nc(-n3ccc(-c4cccc(C)c4)n3)nc(N3CCOCC3)c2o1` [Compound 92, N-methyl-4-morpholino-2-(3-(m-tolyl)-1H-pyrazol-1-yl)furo[3,2-d]pyrimidine-6-carboxamide], the IC50 was 0.0915 µM. `O=C(NC1COC1)c1cc2nc(-n3cc(-c4ccccc4)cn3)nc(N3CCOCC3)c2o1` [Compound 174, 4-morpholino-N-(oxetan-3-yl)-2-(4-phenylpyrazol-1-yl)furo[3,2-d]pyrimidine-6-carboxamide] showed an IC50 of 0.531 µM. `O=C(c1cc2nc(Nc3cc(-c4ccccc4)[nH]n3)nc(N3CCOCC3)c2o1)N1CCOCC1` [Compound 135, morpholino(4-morpholino-2-((5-phenyl-1H-pyrazol-3-yl)amino)furo[3,2-d]pyrimidin-6-yl)methanone] was tested, and the IC50 was 0.147 µM. For `c1ccc(-c2cc(Nc3nc(N4CCOCC4)c4oc(-c5cccnc5)cc4n3)[nH]n2)cc1` [Compound 29, 4-morpholino-N-(5-phenyl-1H-pyrazol-3-yl)-6-(3-pyridyl)furo[3,2-d]pyrimidin-2-amine, hydrogen chloride], the IC50 was 0.001 µM. Work on `O=C(NCC1COC1)c1cc2nc(-n3ccc(-c4ccccc4)n3)nc(N3CCOCC3)c2o1` [Compound 159, 4-morpholino-N-(oxetan-3-ylmethyl)-2-(3-phenylpyrazol-1-yl)furo[3,2-d]pyrimidine-6-carboxamide] yielded an IC50 of 0.943 µM. For `O=C(NC1CCOCC1)c1cc2nc(-n3cc(-c4ccccc4)cn3)nc(N3CCOCC3)c2o1` [Compound 171, 4-morpholino-2-(4-phenylpyrazol-1-yl)-N-tetrahydropyran-4-yl-furo[3,2-d]pyrimidine-6-carboxamide], the IC50 was 0.0392 µM. Molecule `CN1CCC(c2cc3nc(Nc4cc(-c5ccccc5)n[nH]4)nc(N4CCOCC4)c3o2)C1` (centres unmarked) [Compound 38] has an IC50 of 0.131 µM. `Cc1cccc(-c2cnn(-c3nc(N4CCOCC4)c4oc(-c5cc(C)n(CCNC(=O)CCl)n5)cc4n3)c2)c1` [Compound 198, 2-chloro-N-[2-[5-methyl-3-[4-morpholino-2-[4-(m-tolyl)pyrazol-1-yl]furo[3,2-d]pyrimidin-6-yl]pyrazol-1-yl]ethyl]acetamide] showed an IC50 of 0.0006 µM. In the case of `c1ccc(-c2nnc(Nc3nc(N4CCOCC4)c4oc(-c5ccncc5)cc4n3)o2)cc1` [Compound 47, 4-morpholino-N-(5-phenyl-1,3,4-oxadiazol-2-yl)-6-(4-pyridyl)furo[3,2-d]pyrimidin-2-amine, hydrogen chloride], the IC50 is reported as 0.052 µM. `COc1cccc(-c2cc(Nc3nc(N4CCOCC4)c4oc(-c5ccncc5)cc4n3)[nH]n2)c1` [Compound 24, N-[5-(3-methoxypheny1)-1H-pyrazol-3-yl]-4-morpholino-6-(4-pyridyl)furo[3,2-d]pyrimidin-2-amine, hydrogen chloride] gave an IC50 of 0.06 µM. Molecule `Cc1cc(Nc2nc(N3CCOCC3)c3oc(-c4ccncc4)cc3n2)[nH]n1` [Compound 5, N-(5-methyl-1H-pyrazol-3-yl)-4-morpholino-6-(4-pyridyl)furo[3,2-d]pyrimidin-2-amine, hydrogen chloride] has an IC50 of 0.279 µM. Molecule `c1ccc(-c2ccn(-c3nc(N4CCOCC4)c4oc(-c5nccs5)cc4n3)n2)cc1` [Compound 207, 4-morpholino-2-(3-phenylpyrazol-1-yl)-6-thiazol-2-yl-furo[3,2-d]pyrimidine] has an IC50 of 0.0066 µM. With `c1ccc(-c2cc(Nc3nc(N4CCOCC4)c4oc(-c5ccncc5)cc4n3)on2)cc1` [Compound 44, 4-morpholino-N-(3-phenylisoxazol-5-yl)-6-(pyridin-4-yl)furo[3,2-d]pyrimidin-2-amine] the IC50 was 0.002 µM. In the case of `Cc1cc(-c2cc3nc(-n4cc(-c5ccccc5)cn4)nc(N4CCOCC4)c3o2)[nH]n1` [Compound 163, 6-(3-methyl-1H-pyrazol-5-yl)-4-morpholino-2-(4-phenylpyrazol-1-yl)furo[3,2-d]pyrimidine], the IC50 is reported as 0.0235 µM. Work on `c1cc(-c2cc(Nc3nc(N4CCOCC4)c4oc(-c5ccncc5)cc4n3)[nH]n2)ccn1` [Compound 6, 4-morpholino-6-(4-pyridyl)-N-[5-(4-pyridyl)-1H-pyrazol-3-yl]furo[3,2-d]pyrimidin-2-amine, hydrogen chloride] yielded an IC50 of 0.0446 µM. `Cc1cccc(-c2ccn(-c3nc(N4CCOCC4)c4oc(-c5nccs5)cc4n3)n2)c1` [Compound 203, 4-morpholino-2-[3-(m-tolyl)pyrazol-1-yl]-6-thiazol-2-yl-furo[3,2-d]pyrimidine] showed an IC50 of 0.0019 µM. In the case of `CN1CCCC(NC(=O)c2cc3nc(-n4cc(-c5ccccc5)cn4)nc(N4CCOCC4)c3o2)C1` (centres unmarked) [Compound 169, N-(1-methyl-3-piperidyl)-4-morpholino-2-(4-phenylpyrazol-1-yl)furo[3,2-d]pyrimidine-6-carboxamide], the IC50 is reported as 0.0673 µM. Molecule `c1ccc2c(Nc3nc(N4CCOCC4)c4oc(-c5ccncc5)cc4n3)n[nH]c2c1` [Compound 50, N-(1H-indazol-3-yl)-4-morpholino-6-(pyridin-4-yl)furo[3,2-d]pyrimidin-2-amine hydrochloride] has an IC50 of 0.835 µM. `FC(F)(F)c1cc(Nc2nc(N3CCOCC3)c3oc(-c4ccncc4)cc3n2)[nH]n1` [Compound 72, 4-morpholino-6-(pyridin-4-yl)-N-(5-(trifluoromethyl)-1H-pyrazol-3-yl)furo[3,2-d]pyrimidin-2-amine, hydrogen chloride] showed an IC50 of 0.552 µM. `Cc1cccc(-c2ccn(-c3nc(N4CCOCC4)c4oc(C(N)=O)cc4n3)n2)c1` [Compound 94, 4-morpholino-2-(3-(m-tolyl)-1H-pyrazol-1-yl)furo[3,2-d]pyrimidine-6-carboxamide] was tested, and the IC50 was 0.0867 µM. `Cc1cc(-c2cc3nc(-n4cc(-c5ccccc5)cn4)nc(N4CCOCC4)c3o2)nn1CCN(C)C` [Compound 183, N,N-dimethyl-2-[5-methyl-3-[4-morpholino-2-(4-phenylpyrazol-1-yl)furo[3,2-d]pyrimidin-6-yl]pyrazol-1-yl]ethanamine] gave an IC50 of 0.0118 µM. `Cc1cncc(-c2cc(Nc3nc(N4CCOCC4)c4oc(-c5ccncc5)cc4n3)[nH]n2)c1` [Compound 23, N-[5-(5-methyl-3-pyridyl)-1H-pyrazol-3-yl]-4-morpholino-6-(4-pyridyl)furo[3,2-d]pyrimidin-2-amine, hydrogen chloride] showed an IC50 of 0.195 µM. `c1ccc(-c2cc(Nc3nc(N4CCOCC4)c4oc(-c5ccncc5)cc4n3)[nH]n2)nc1` [Compound 19, 4-morpholino-6-(4-pyridyl)-N-[5-(2-pyridyl)-1H-pyrazol-3-yl]furo[3,2-d]pyrimidin-2-amine, hydrogen chloride] was tested, and the IC50 was 0.064 µM. `O=C(NC1CCOCC1)c1cc2nc(-n3ccc(-c4cccc(Br)c4)n3)nc(N3CCOCC3)c2o1` [Compound 220, 2-[3-(3-bromophenyl)pyrazol-1-yl]-4-morpholino-N-tetrahydropyran-4-yl-furo[3,2-d]pyrimidine-6-carboxamide] showed an IC50 of 0.0163 µM. With `CNC(=O)c1cc2nc(Nc3cc(-c4ccsc4)n[nH]3)nc(N3CCOCC3)c2o1` [Compound 86, N-methyl-4-morpholino-2-((5-(thiophen-3-yl)-1H-pyrazol-3-yl)amino)furo[3,2-d]pyrimidine-6-carboxamide, hydrogen chloride] the IC50 was 0.061 µM. With `c1cncc(-c2cc(Nc3nc(N4CCOCC4)c4oc(-c5ccncc5)cc4n3)[nH]n2)c1` [Compound 18, 4-morpholino-6-(4-pyridyl)-N-[5-(3-pyridyl)-1H-pyrazol-3-yl]furo[3,2-d]pyrimidin-2-amine, hydrogen chloride] the IC50 was 0.144 µM. `CN1CCN(C(=O)c2cc3nc(Nc4cc(-c5ccccc5)[nH]n4)nc(N4CCOCC4)c3o2)CC1` [Compound 136, (4-methylpiperazin-1-yl)(4-morpholino-2-((5-phenyl-1H-pyrazol-3-yl)amino)furo[3,2-d]pyrimidin-6-yl)methanone] gave an IC50 of 0.094 µM. Work on `Cc1cccc(-c2ccn(-c3nc(N4CCOCC4)c4oc(-c5ncco5)cc4n3)n2)c1` [Compound 218, 4-morpholino-2-[3-(m-tolyl)pyrazol-1-yl]-6-oxazol-2-yl-furo[3,2-d]pyrimidine] yielded an IC50 of 0.0091 µM.
